Patent US9145399B2, “Substituted bicyclic triazole derivatives as gamma secretase modulators” (Janssen Pharmaceuticals, Inc., priority 2010, dated 2015)
Counter-ions that a name gives are not always drawn.

Tests used:
[1] = test system: Aβ42; test: Screening for γ-secretase-modulating activity in SKNBE2 cells carrying APP 695 wild type: Aβ42 in cell supernatant (Alphalisa); assay type: cell-based; conditions: overnight incubation
Experimental: (§1) Pharmacology A) Screening of the Compounds of the Invention for γ-Secretase-Modulating Activity
(§2) Screening was carried out using SKNBE2 cells carrying the APP 695—wild type, grown in Dulbecco's Modified Eagle's Medium/Nutrient mixture F-12 (DMEM/NUT-mix F-12) (HAM) provided by Invitrogen (cat no. 10371-029) containing 5% Serum/Fe supplemented with 1% non-essential amino acids, 1-glutamine 2 mM, Hepes 15 mM, penicillin 50 U/ml (units/ml) en streptomycin 50 μg/ml. Cells were grown to near confluency.
(§3) The screening was performed using a modification of the assay as described in Citron et al (1997) Nature Medicine 3: 67. Briefly, cells were plated in a 384-well plate at 10^4 cells/well in Ultraculture (Lonza, BE12-725F) supplemented with 1% glutamine (Invitrogen, 25030-024), 1% non-essential amino acid (NEAA), penicillin 50 U/ml en streptomycin 50 μg/ml in the presence of test compound at different test concentrations. The cell/compound mixture was incubated overnight at 37° C., 5% CO2. The next day the media were assayed by two sandwich immuno-assays, for Aβ42 and Aβtotal.
(§4) Aβtotal and Aβ42 concentrations were quantified in the cell supernatant using the Aphalisa technology (Perkin Elmer). Alphalisa is a sandwich assay using biotinylated antibody attached to streptavidin coated donorbeads and antibody conjugated to acceptor beads. In the presence of antigen, the beads come into close proximity. The excitation of the donor beads provokes the release of singlet oxygen molecules that trigger a cascade of energy transfer in the acceptor beads, resulting in light emission. To quantify the amount of Aβ42 in the cell supernatant, monoclonal antibody specific to the C-terminus of Aβ42 (JRF/cAβ42/26) was coupled to the receptor beads and biotinylated antibody specific to the N-terminus of Aβ (JRF/AβN/25) was used to react with the donor beads. T quantify the amount of Aβtotal in the cell supernatant, monoclonal antibody specific to the N-terminus of Aβ (JRF/AβN/25) was coupled to the receptor beads and biotinylated antibody specific to the mid region of Aβ (biotinylated 4G8) was used to react with the donor beads.
(§5) To obtain the values reported in Table 3, the data are calculated as percentage of the maximum amount of amyloid Beta 42 measured in the absence of the test compound. The sigmoidal dose response curves were analyzed using non-linear regression analysis with percentage of the control plotted against the log concentration of the compound. A 4-parameter equation was used to determine the IC50.

[2] = test system: Aβtotal; test: Screening for γ-secretase-modulating activity in SKNBE2 cells carrying APP 695 wild type: Aβtotal in cell supernatant (Alphalisa); assay type: cell-based; conditions: overnight incubation
Experimental: as §1, §2, §3, §4, §5

[3] = Homo sapiens, SKNBE2, SKNBE2 cells carrying APP 695 wild type
[4] = SKNBE2 cells carrying APP 695 wild type

IC50 [1, 3] [nM] | IC50 ([2]; Homo sapiens) [nM] | melting point [°C] | IC50 [1, 4] [nM] | IC50 [2] [nM] | SMILES
44 | > 10000 | 122.1 |  |  | COc1cc(Nc2nc3n(n2)CCC(C)C3c2ccc(F)cc2)ccc1-c1ccnc(C)c1 (racemic) [Compound 101, 8-(4-fluorophenyl)-5,6,7,8-tetrahydro-N-[3-methoxy-4-(2-methyl-4-pyridinyl)phenyl]-7-methyl-[1,2,4]triazolo[1,5-a]pyridin-2-amine]
16 | 7760 | 207.1 |  |  | COc1cc(Nc2nc3n(n2)CCCC3c2ccc(F)cc2)ccc1-c1ccnc(C)c1 (stereo not shown) [Compound 1, 8-(4-fluorophenyl)-5,6,7,8-tetrahydro-N-[3-methoxy-4-(2-methyl-4-pyridinyl)phenyl]-[1,2,4]triazolo[1,5-a]pyridin-2-amine]
7 | > 10000 | 186.7 |  |  | COc1cc(Nc2nc3c(-c4ccccc4Cl)cccn3n2)ccc1-c1ccnc(C)c1 [Compound 2, 8-(2-chlorophenyl)-N-[3-methoxy-4-(2-methyl-4-pyridinyl)phenyl]-[1,2,4]triazolo[1,5-a]pyridin-2-amine]
7 | 7410 | 238.4 |  |  | COc1cc(Nc2nc3c(-c4ccc(F)cc4C(F)(F)F)cccn3n2)ccc1-n1cnc(C)c1 [Compound 6, 8-[4-fluoro-2-(trifluoromethyl)phenyl]-N-[3-methoxy-4-(4-methyl-1H-imidazol-1-yl)phenyl]-[1,2,4]triazolo[1,5-a]pyridin-2-amine]
7 | > 10000 | 235 |  |  | COc1cc(Nc2nc3c(-c4ccccc4Cl)cccn3n2)ccc1-n1cnc(C)c1 [Compound 7, 8-(2-chlorophenyl)-N-[3-methoxy-4-(4-methyl-1H-imidazol-1-yl)phenyl]-[1,2,4]triazolo[1,5-a]pyridin-2-amine]
32 | 7590 | 206.9 |  |  | COc1cc(Nc2nc3c(-c4ccccc4C(F)(F)F)nccn3n2)ccc1-n1cnc(C)c1 [Compound 8, N-[3-methoxy-4-(4-methyl-1H-imidazol-1-yl)phenyl]-8-[2-(trifluoromethyl)phenyl]-[1,2,4]triazolo[1,5-a]pyrazin-2-amine]
65 | > 10000 | 248 |  |  | COc1cc(Nc2nc3n(n2)CCNC3c2ccccc2C(F)(F)F)ccc1-n1cnc(C)c1 (stereo not shown) [Compound 9, 5,6,7,8-tetrahydro-N-[3-methoxy-4-(4-methyl-1H-imidazol-1-yl)phenyl]-8-[2-(trifluoromethyl)phenyl]-[1,2,4]triazolo[1,5-a]pyrazin-2-amine]
 |  | 278.9 |  |  | COc1nc(Nc2nc3c(-c4ccc(F)cc4C)nccn3n2)ccc1-n1cnc(C)c1 [Compound 11, 8-(4-fluoro-2-methylphenyl)-N-[6-methoxy-5-(4-methyl-1H-imidazol-1-yl)-2-pyridinyl]-[1,2,4]triazolo[1,5-a]pyrazin-2-amine]
 |  | 268.2 |  |  | COc1nc(Nc2nc3c(-c4ccc(F)cc4C)nccn3n2)ccc1-c1ccnc(C)c1 [Compound 12, 8-(4-fluoro-2-methylphenyl)-N-(2-methoxy-2′-methyl[3,4′-bipyridin]-6-yl)-[1,2,4]triazolo[1,5-a]pyrazin-2-amine]
79 | > 10000 | 233.2 |  |  | COc1cc(Nc2nc3n(n2)CCCC3c2ccccc2C(F)(F)F)ccc1-n1cnc(C)n1 (stereo not shown) [Compound 15, 5,6,7,8-tetrahydro-N-[3-methoxy-4-(3-methyl-1H-1,2,4-triazol-1-yl)phenyl]-8-[2-(trifluoromethyl)phenyl]-[1,2,4]triazolo[1,5-a]pyridin-2-amine]
5 | 5890 | 175 |  |  | COc1cc(Nc2nc3c(-c4cccc(C(F)(F)F)c4)cccn3n2)ccc1-n1cnc(C)c1 [Compound 20, N-[3-methoxy-4-(4-methyl-1H-imidazol-1-yl)phenyl]-8-[3-(trifluoromethyl)phenyl]-[1,2,4]triazolo[1,5-a]pyridin-2-amine]
40 | 7590 | 199 |  |  | COc1cc(Nc2nc3c(-c4cccc(C(F)(F)F)c4)nccn3n2)ccc1-n1cnc(C)c1 [Compound 22, N-[3-methoxy-4-(4-methyl-1H-imidazol-1-yl)phenyl]-8-[3-(trifluoromethyl)phenyl]-[1,2,4]triazolo[1,5-a]pyrazin-2-amine]
13 | > 10000 | 220.3 |  |  | COc1cc(Nc2nc3c(-c4ccccc4C(F)(F)F)cccn3n2)ccc1-c1ocnc1C [Compound 23, N-[3-methoxy-4-(4-methyl-5-oxazolyl)phenyl]-8-[2-(trifluoromethyl)phenyl]-[1,2,4]triazolo[1,5-a]pyridin-2-amine]
43 | > 10000 |  |  |  | Cc1cc(-c2ccc(Nc3nc4n(n3)CCC[C@@H]4c3ccc(F)cc3C)cc2)ccn1 [Compound 93, (8R)-8-(4-fluoro-2-methylphenyl)-5,6,7,8-tetrahydro-N-[4-(2-methyl-4-pyridinyl)phenyl]-[1,2,4]triazolo[1,5-a]pyridin-2-amine]
56 | > 10000 |  |  |  | Cc1cc(-c2ccc(Nc3nc4n(n3)CCC[C@H]4c3ccc(F)cc3C)cc2)ccn1 [Compound 94, (8S)-8-(4-fluoro-2-methylphenyl)-5,6,7,8-tetrahydro-N-[4-(2-methyl-4-pyridinyl)phenyl]-[1,2,4]triazolo[1,5-a]pyridin-2-amine]
 |  |  | 56 | > 10000 | COc1ccc(C2CCCn3nc(Nc4ccc(-c5ccnc(C)c5)c(OC)c4)nc32)cc1F (stereo not shown) [Compound 104, 8-(3-fluoro-4-methoxyphenyl)-5,6,7,8-tetrahydro-N-[3-methoxy-4-(2-methyl-4-pyridinyl)phenyl]-[1,2,4]triazolo[1,5-a]pyridin-2-amine.1.3HCl.2.3H2O]
56 | > 10000 |  |  |  | COc1cc(Nc2nc3n(n2)CCCC3c2cccc(N(C)C)c2)ccc1-c1ccnc(C)c1 (stereo not shown) [Compound 111, 8-[3-(dimethylamino)phenyl]-5,6,7,8-tetrahydro-N-[3-methoxy-4-(2-methyl-4-pyridinyl)phenyl]-[1,2,4]triazolo[1,5-a]pyridin-2-amine]
41 | > 10000 |  |  |  | COc1cc(F)cc(C2CCCn3nc(Nc4ccc(-c5ccnc(C)c5)c(OC)c4)nc32)c1 (stereo not shown) [Compound 115, 8-(3-fluoro-5-methoxyphenyl)-5,6,7,8-tetrahydro-N-[3-methoxy-4-(2-methyl-4-pyridinyl)phenyl]-[1,2,4]triazolo[1,5-a]pyridin-2-amine]
28 | > 10000 |  |  |  | Cc1cc(-c2ccc(Nc3nc4n(n3)CCCC4c3cc(C(F)(F)F)ccc3C)cc2)ccn1 (stereo not shown) [Compound 144, 5,6,7,8-tetrahydro-N-[4-(2-methyl-4-pyridinyl)phenyl]-8-[2-methyl-5-(trifluoromethyl)phenyl]-[1,2,4]triazolo[1,5-a]pyridin-2-amine]
 |  |  | 38 | > 10000 | COc1ccc(F)c(C2CCCn3nc(Nc4ccc(-c5ccnc(C)c5)c(OC)c4)nc32)c1 (stereo not shown) [Compound 172, 8-(2-fluoro-5-methoxyphenyl)-5,6,7,8-tetrahydro-N-[3-methoxy-4-(2-methyl-4-pyridinyl)phenyl]-[1,2,4]triazolo[1,5-a]pyridin-2-amine.1.7HCl]
16 | 3980 |  |  |  | COc1cc(Nc2nc3c(N4CCCC(C(F)(F)F)C4)cccn3n2)ccc1-c1ccnc(C)c1 (stereo not shown) [Compound 181, N-[3-methoxy-4-(2-methyl-4-pyridinyl)phenyl]-8-[3-(trifluoromethyl)-1-piperidinyl]-[1,2,4]triazolo[1,5-a]pyridin-2-amine.1.5HCl.1.7H2O]
 |  |  | 1100 | > 10000 | COc1nc(Nc2nc3c(-c4ccc(F)cc4C)nccn3n2)ccc1-n1cnc(C)c1 [Compound 186, 8-(4-fluoro-2-methylphenyl)-N-[6-methoxy-5-(4-methyl-1H-imidazol-1-yl)-2-pyridinyl]-[1,2,4]triazolo[1,5-a]pyrazin-2-amine.HCl]
 |  |  | 1620 | > 10000 | COc1nc(Nc2nc3c(-c4ccc(F)cc4C)nccn3n2)ccc1-c1ccnc(C)c1 [Compound 187, 8-(4-fluoro-2-methylphenyl)-N-(2-methoxy-2′-methyl[3,4′-bipyridin]-6-yl)-[1,2,4]triazolo[1,5-a]pyrazin-2-amine.HCl]
